Data: ChEMBL document CHEMBL1201862, “PubChem BioAssay data set” (2004)
The source made the active and inactive calls.

Assays:
[1] = target: T1, Polyadenylate-binding protein 1 (Homo sapiens, UniProt P11940); assay: MLLE domain peptide-binding blockers, IC50 – biochemical, fluorescence polarization, FITC-PAM2 peptide, dose response (AID 602259); format: functional; conditions: read-out: IC50_Mean
[2] = target: T1, Polyadenylate-binding protein 1; assay: MLLE binding blockers, Cy5 peptide tracer – biochemical, fluorescence polarization, Cy5-PAM2 peptide, secondary, miRNA deadenylation inhibitor project, dose response (AID 602260); format: functional; conditions: read-out: IC50_Mean
[3] = Luminescence Cell-Based Dose Response HTS to Identify Activators of Luciferase Translation or Activity in H4 […] Cells. [Related pubchem assays: 1829 (Project Summary), 1814 (Primary HTS)]; format: functional
[4] = viability inhibitors of stage V gametocytes – luminescence, dose response (AID 1117278); format: functional, cell-based;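 note: gametocytes exposed to compound for 24 hours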
H4 = assay: Luminescence Cell-Based Dose Response HTS to Identify Activators of 5'UTR Stem-Loop Driven Prion Protein mRNA Translation in H4 Neuroglioblastoma Cells. [Related pubchem assays: 1829 (Project Summary), 1814 (Primary HTS)]; format: functional; conditions: Homo sapiens
[5] = viability loss in human Jurkat cells – cell-based, luminescence, cytotoxicity control for P. falciparum gametocyte viability project, dose response (AID 1117277); format: functional;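 note: potency reflects loss of cellular ATP meaning fewer viable cells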
[6] = Luminescence Cell-Based Dose Confirmation HTS to Identify Activators of 5'UTR Stem-Loop Driven Alpha-Synuclein mRNA Translation in H4 Neuroglioblastoma Cells. [Related pubchem assays: 1829 (Project Summary), 1814 (Primary HTS)]; format: functional
[7] = target: T2, Mannose-6-phosphate isomerase (Homo sapiens, UniProt P34949); assay: MPI inhibition at elevated mannose 6-phosphate – biochemical, fluorescence intensity, high mannose 6-phosphate, primary screen (AID 1220)
T2 sequence (P34949 whole entry): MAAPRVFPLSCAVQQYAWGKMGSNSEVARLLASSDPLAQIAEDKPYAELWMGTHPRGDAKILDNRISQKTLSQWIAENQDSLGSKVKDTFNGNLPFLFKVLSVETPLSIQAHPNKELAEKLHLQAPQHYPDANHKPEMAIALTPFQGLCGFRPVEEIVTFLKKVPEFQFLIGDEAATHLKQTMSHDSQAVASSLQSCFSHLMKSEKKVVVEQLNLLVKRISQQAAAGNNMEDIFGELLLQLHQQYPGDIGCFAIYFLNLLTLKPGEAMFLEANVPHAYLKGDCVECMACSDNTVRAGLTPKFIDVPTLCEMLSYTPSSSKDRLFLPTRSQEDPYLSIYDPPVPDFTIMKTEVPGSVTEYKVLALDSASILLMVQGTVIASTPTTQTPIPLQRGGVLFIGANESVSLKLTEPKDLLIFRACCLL

HeLa = assay: ATP-based viability loss in HeLa cells – cell-based, CellTiter-Glo luminescence, cherry-pick samples, cytotoxicity control for MITF activator project, dose response (AID 540259); format: functional; conditions: Homo sapiens
[8] = target: Luciferin 4-monooxygenase (Photinus pyralis, UniProt P08659); assay: inhibition of purified Photinus pyralis luciferase – biochemical, luminescence, dose response (AID 1891)
Sequence of Luciferin 4-monooxygenase (P08659 whole entry): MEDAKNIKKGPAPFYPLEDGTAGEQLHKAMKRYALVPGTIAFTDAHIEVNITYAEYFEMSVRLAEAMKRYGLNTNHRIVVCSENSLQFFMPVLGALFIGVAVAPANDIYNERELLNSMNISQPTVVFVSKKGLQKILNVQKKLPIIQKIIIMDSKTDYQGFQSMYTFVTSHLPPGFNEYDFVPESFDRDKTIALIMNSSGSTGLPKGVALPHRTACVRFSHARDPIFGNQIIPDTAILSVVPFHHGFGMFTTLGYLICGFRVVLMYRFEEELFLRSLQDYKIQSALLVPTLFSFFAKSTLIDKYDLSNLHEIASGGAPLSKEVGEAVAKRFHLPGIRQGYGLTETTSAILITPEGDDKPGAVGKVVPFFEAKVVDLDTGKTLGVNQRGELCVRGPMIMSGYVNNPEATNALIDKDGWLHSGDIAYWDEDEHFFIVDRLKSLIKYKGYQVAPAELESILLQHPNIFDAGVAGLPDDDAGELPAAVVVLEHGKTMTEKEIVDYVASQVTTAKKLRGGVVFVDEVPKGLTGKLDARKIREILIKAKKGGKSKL

[9] = target: T3, Rac GTPase-activating protein 1 (Homo sapiens, UniProt Q9H0H5); assay: blockers of MgcRacGAP-driven Rac1 GTP hydrolysis – biochemical, ADP Hunter fluorescence, primary and confirmatory, confirmation (AID 624330); format: functional
T3 sequence (Q9H0H5 whole entry): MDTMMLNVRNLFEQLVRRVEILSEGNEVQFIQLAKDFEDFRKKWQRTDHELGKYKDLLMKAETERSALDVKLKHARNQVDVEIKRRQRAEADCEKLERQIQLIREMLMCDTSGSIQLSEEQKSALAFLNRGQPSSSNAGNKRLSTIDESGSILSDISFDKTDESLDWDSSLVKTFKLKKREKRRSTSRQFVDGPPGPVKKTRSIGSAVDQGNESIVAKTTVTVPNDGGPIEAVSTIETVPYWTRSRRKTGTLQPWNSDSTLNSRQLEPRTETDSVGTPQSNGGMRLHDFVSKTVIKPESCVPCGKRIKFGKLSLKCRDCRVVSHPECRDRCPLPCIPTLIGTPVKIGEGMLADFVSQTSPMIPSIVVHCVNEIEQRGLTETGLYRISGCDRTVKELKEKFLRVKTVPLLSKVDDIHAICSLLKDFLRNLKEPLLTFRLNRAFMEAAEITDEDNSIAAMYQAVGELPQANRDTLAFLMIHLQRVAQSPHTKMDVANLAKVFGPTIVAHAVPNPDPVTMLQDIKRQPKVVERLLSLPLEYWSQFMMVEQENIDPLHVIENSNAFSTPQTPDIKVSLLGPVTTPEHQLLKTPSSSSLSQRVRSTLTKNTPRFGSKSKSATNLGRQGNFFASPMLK

[10] = Luminescence Cell-Based Dose Confirmation HTS to Identify Inhibitors of Platelet Dense Granule Release. [Related pubchem assays: 1663 (Primary HTS), 1678 (Summary of Project)]; format: functional
Prothrombin = Prothrombin (Homo sapiens, UniProt P00734); assay: Thrombin 1536 HTS Dose Response Confirmation. [Related pubchem assays: 1046 (Thrombin 1536 HTS; hits were confirmed in this assay)]; format: functional
[11] = fluconazole-exposed Candida albicans growth modulators – fluorescence, retest, confirmation (AID 2467); format: functional, cell-based
[12] = NIH-3T3 fibroblast cytotoxicity, dose response, cytotoxicity control, cell-based, fluorescence, Alamar Blue, secondary assay (AID 2327); format: functional;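 note: NIH-3T3 mouse fibroblasts cultured with fluconazole at 8 µg/mL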
[13] = HIV-1 AD8 envelope cell-cell fusion blockers – cherry-pick, dose response (AID 652062); format: functional, cell-based;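 note: luciferase signal from cell-cell fusion driven by HIV-1 clade B AD8 Env; potency is for inhibitors of fusion seen as a drop in luminescence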
[14] = blockers of HIV-1 envelope-mediated cell-cell fusion – cherry-pick, dose response (AID 652057); format: functional, cell-based
[15] = A549 cell cytotoxicity, dose response, cytotoxicity control, plate reader, cherry-pick, antagonist series (AID 743412); format: functional, cell-based
[16] = blockers of bursicon-stimulated LGR2 cAMP reporter – cell-based, HEK293, CRE-luciferase reporter, cherry pick, set 2, dose response (AID 743343); format: functional;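 note: transfected cells were stimulated with diluted bursicon conditioned medium after compound addition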
[17] = toxicity toward HepG2 liver cells – cell-based, plate reader, cherry-pick, antagonist series, cytotoxicity control, dose response (AID 743416); format: functional
[18] = viability of HCT116 lacking mutant beta-catenin – cell-based, human colon tumor, dose response (AID 1045); format: functional;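 note: HCT116 colon tumor cells with beta catenin knocked out; cells exposed to compound for 60 hours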
[19] = viability of PTEN-deleted HCT116 cells – cell-based, HCT116 PTEN knockout, dose response (AID 1047); format: functional;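 note: HCT116 colon tumor cells with PTEN knocked out; cells exposed to compound for 60 hours before readout; potency for loss of cell viability measured by luminescence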
[20] = blockade of melanocortin 4 receptor signaling – cell-based, plate reader, cherry pick, counter-screen for LGR2 antagonist project, dose response (AID 743444); format: functional;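 note: transfected HEK 293 cells stimulated with alpha-MSH peptide; potency of inhibitors of the alpha-MSH evoked signal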
Protein skinhead-1 = target: T4, Protein skinhead-1 (Caenorhabditis elegans, UniProt P34707); format: functional
T4 sequence (P34707 whole entry): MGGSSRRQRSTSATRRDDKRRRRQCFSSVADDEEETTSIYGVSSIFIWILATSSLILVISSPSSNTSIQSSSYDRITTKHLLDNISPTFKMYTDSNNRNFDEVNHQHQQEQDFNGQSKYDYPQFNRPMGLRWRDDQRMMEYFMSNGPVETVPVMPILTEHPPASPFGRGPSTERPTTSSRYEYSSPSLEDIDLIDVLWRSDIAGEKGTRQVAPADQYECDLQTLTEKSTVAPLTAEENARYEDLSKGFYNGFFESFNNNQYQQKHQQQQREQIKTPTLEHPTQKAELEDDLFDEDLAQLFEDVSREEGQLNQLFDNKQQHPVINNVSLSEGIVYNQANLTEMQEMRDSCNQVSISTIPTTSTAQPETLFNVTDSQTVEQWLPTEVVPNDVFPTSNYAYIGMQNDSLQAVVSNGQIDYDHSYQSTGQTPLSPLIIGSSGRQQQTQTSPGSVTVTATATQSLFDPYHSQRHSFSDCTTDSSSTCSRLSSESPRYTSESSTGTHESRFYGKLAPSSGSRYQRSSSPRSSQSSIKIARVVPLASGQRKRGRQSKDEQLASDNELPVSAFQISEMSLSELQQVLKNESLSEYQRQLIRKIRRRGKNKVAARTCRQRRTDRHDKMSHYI

T1 sequence (P11940 whole entry, the tested form may be a part): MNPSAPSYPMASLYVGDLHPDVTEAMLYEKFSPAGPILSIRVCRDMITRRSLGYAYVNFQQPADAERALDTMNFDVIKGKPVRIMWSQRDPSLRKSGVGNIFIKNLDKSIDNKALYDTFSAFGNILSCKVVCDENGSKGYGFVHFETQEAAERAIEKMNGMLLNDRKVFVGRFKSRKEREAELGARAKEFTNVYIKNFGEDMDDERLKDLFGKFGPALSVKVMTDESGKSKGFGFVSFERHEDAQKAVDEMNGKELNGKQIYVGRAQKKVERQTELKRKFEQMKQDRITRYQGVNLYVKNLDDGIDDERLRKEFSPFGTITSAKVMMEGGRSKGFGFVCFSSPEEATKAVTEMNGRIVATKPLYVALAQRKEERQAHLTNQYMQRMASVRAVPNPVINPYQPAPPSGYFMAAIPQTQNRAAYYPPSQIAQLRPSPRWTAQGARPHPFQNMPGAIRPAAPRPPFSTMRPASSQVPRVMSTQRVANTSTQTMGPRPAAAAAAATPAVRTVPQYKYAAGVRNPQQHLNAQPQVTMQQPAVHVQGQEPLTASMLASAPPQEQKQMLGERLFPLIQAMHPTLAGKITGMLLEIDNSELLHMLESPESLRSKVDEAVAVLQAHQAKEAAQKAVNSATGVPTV

## CCc1c(C)sc(NC(=O)c2cc(C3CC3)on2)c1C#N
[1]
  IC50: > 66 µM (inactive)
[2]
  IC50: > 66 µM (inactive)

## Cc1cccn2cc(-c3ccc4c(c3)NC(=O)CO4)nc12
[3]
  EC50: 34.6 µM (active)
[4]
  IC50: > 109 µM (inactive)
H4
  EC50: 7 µM (active)
[5]
  IC50: > 83.3 µM (inactive)
[6]
  EC50: 7.24 µM (active)

## CCN(Cc1ccncc1)Cc1c(O)ccc2ccccc12
[7]
  IC50: > 50 µM (not active)

## Oc1ccc(/C=N/Nc2cccc(Cl)n2)c(O)c1
HeLa
  AC50: 316 µM (active)
[8]
  EC50: 1.66 µM (active)
[9]
  IC50: 29 µM (active)
[10]
  EC50: 1.39 µM (active)

## CCN(CC)Cc1ccccc1Sc1ccccc1
Prothrombin
  IC50: > 50 µM (not active)

## O=C(O)c1cccc(NC(=S)NC(=O)c2cccc(OCc3ccccc3)c2)c1
[1]
  IC50: > 66 µM (inactive)
[2]
  IC50: > 66 µM (inactive)

## Cc1ccc(Nc2nc(Cl)nc(NC(C)(C)C)n2)cc1
HeLa
  AC50: 159 µM (active)
[11]
  EC50: 1.98 µM (active)
[12]
  EC50: > 160 µM (inactive)

## Cc1cc(N2CCN(c3ccccc3)CC2)nc(-c2ccccc2)n1
Prothrombin
  IC50: > 50 µM (not active)

## Cc1ccc(-c2ccc3c(c2)O[C@H](CN(C)Cc2ccncc2)[C@@H](C)CN([C@@H](C)CO)S3(=O)=O)cc1
[13]
  AC50: 26.5 µM (active)
[14]
  AC50: 12.8 µM (active)

## N#C[C@@H]1[C@H](c2ccc(C#Cc3cccc(F)c3)cc2)[C@@H](CO)N1C(=O)C1CC1
[15]
  AC50: 24.4 µM (active)
[16]
  AC50: 61.3 µM (active)
[17]
  AC50: 36.7 µM (active)

## c1cncc(-c2nnc(-c3cccnc3)nn2)c1
[1]
  IC50: > 66 µM (inactive)
[18]
  EC50: 9.6 µM (active)
[2]
  IC50: > 66 µM (inactive)
[19]
  EC50: 9.23 µM (active)

## O=C(CCc1nnc(CCCCc2ccccc2)o1)N1CCCC(O)C1 (stereo unspecified)
[15]
  AC50: 0.513 µM (active)
[20]
  AC50: 3.46 µM (active)
[16]
  AC50: 3.63 µM (active)
[17]
  AC50: > 52 µM (inactive)

## CC(=O)Nc1c(Nc2ccccc2)c2ccccc2oc1=O
[1]
  IC50: > 66 µM (inactive)
[2]
  IC50: > 66 µM (inactive)

## C(=C\c1nnc(-c2cccs2)o1)/c1ccccc1
HeLa
  AC50: 50.6 µM (active)
Protein skinhead-1
  IC50: 11.9 µM (active)
